Key:
NF-κB [1] = test: LPS induced inflammation in mice, activated NF-κB in spleen cell nuclei; assay type: in vivo, ICR mice; conditions: about 40 mg/kg i.p. 24 hours before and 1 hour after LPS; spleens 1.5 hours after LPS
Method: The capacity of selected compounds to treat LPS induced inflammation in mice was examined by a protocol similar to the protocol described above. Five groups of three ICR mice weighing about 30 g were each treated by intraperitoneal injection with 120 μL vehicle (30% sulfobutylether-cyclodextrin in water), androst-5-ene-3α,7β,16α,17β-tetrol in vehicle, androst-5-ene-3β,4β,16α,17β-tetrol in vehicle or 4β-acetoxyandrost-5-ene-3β,16α,17β-triol in vehicle. All drug and vehicle formulations were solutions, not suspensions. The sulfobutylether-cyclodextrin was obtained commercially (Cydex Pharmaceuticals, Inc., Lexena, Kans.). There were two vehicle control groups one group received vehicle alone and the other received vehicle plus LPS. […] Drug was administered at about 40 mg/kg (1.2 mg drug/animal for each administration of the drugs). Spleens were harvested from the animals at 1.5 hours after injection of LPS and spleen cells were lysed and assayed for activated NF-κB by isolating nuclei from spleen cells and measuring NF-κB from the lysed nuclei. […] The level of activated NF-κB in spleen cells from the animals that were treated with vehicle and no LPS, was essentially the same as the activated NF-κB in spleen cells from drug treated animals.

MG-63 cells = test: Reversal of dexamethasone effects in MG-63 osteoblast cells; assay type: cell-based, human
Text: The capacity of 17α-ethynyl-5-androstene-3β,7β,17β-triol to reverse adverse effects of glucocorticoids in bone growth was shown in the human MG-63 osteosarcoma cell line. MG-63 cells are osteoblasts, which are cells that mediate bone growth. This cell line has been used extensively to study bone biology and to characterize the biological activity of compounds for treatment of bone loss conditions (e.g., B. D. Boyan et al., J. Biol. Chem., 264(20):11879-11886, 1989; L. C. Hofbauer et al., Endocrinology, 140(10):4382-4389, 1999). Adverse toxicities associated with elevated glucocorticoid levels include a decrease in the production of IL-6 and IL-8 by osteoblasts, including the MG-63 cell line, and an increase in the expression of the 11β-hydroxysteroid dehydrogenase type 1 enzyme (11β-HSD). Increased 11β-hydroxysteroid dehydrogenase type 1 enzyme results in increased levels of endogenous glucocorticoid activity by converting endogenous cortisone to the active cortisol, which inhibits bone growth. The 11β-HSD enzyme is expressed in liver, adipose tissue, brain and bone tissues. Cortisol generated by 11β-HSD-1 contributes to osteoporosis and disorders such as stroke, neuron death, depression and Parkinson Disease. Decreases in IL-6, IL-8 and osteoprotegerin are associated with decreased bone growth by osteoblasts.

[2] = system: experimental autoimmune encephalomyelitis (EAE); test: PLP-induced experimental autoimmune encephalomyelitis (EAE); assay type: in vivo, SJL mice; conditions: for cumulative incidence of EAE or lethality: 0.1 mg q.d. po; for course of EAE compared to vehicle-treated mice: 0.1 mg q.d. po from clinical onset to day 30 post immunization; for mean cumulative score, follow-up period (day 31 to day 54, post treatment): after end of treatment on day 30
[3] = system: popliteal lymph node cells; test: reporter antigen popliteal lymph node (PLN) assay, immune suppression; assay type: in vivo, BALB/C mice; conditions: 0.1 and 1 mg/day oral gavage
Text: Analysis of immune suppression. Glucocorticoid steroids such as dexamethasone, prednisolone or hydrocortisone are typically immune suppressive and have significant toxicities associated with their use. Immune suppression was examined in a reporter antigen popliteal lymph node assay in mice essentially as previously described (C. Goebel et al., Inflamm. Res., 45(Suppl. 2):S85-S90, 1996; R. Pieters et al., Environmental Health Perspectives 107(Suppl. 5):673-677, 1999). […] In this protocol, the vehicle was 0.1% carboxymethylcellulose, 0.9% saline, 2% tween 80 and 0.05% phenol, which contained 17α-ethynylandrost-5-ene-3β,7β,17β-triol in suspension in drug treated animals. Assessment of activity included (1) measuring suppression of numbers of total lymphocytes, antigen specific IgM, IgG1 and IgG2a antibody secreting cells (ASC) (ELISPOT assay) in popliteal lymph node cells; (2) analysis of cell surface marker (CD4, CD8, CD19, F480, CD80, CD86) expression by flow cytometry of living cells in suspension; and (3) IL-4, TNFα and IFNγ production by lymphocytes in vitro (ELISA).
Groups (n=5 per group) of specific pathogen free BALB/C mice were used. […] The results were analyzed by two-tailed Student's t-test with equal variance. […] Single cell suspensions were prepared, resuspended in 1 mL PBS-BSA (1%) and counted. Cell numbers, IL-4, IL-5 and IFNγ were measured.

osteoprotegerin = test: Osteoprotegerin levels in mice treated daily with dexamethasone; assay type: in vivo
Method: Osteoprotegerin levels in mice that were treated with vehicle and dexamethasone at 10 μg/day (positive control group) had 3.3 pmol/L osteoprotegerin, while animals treated with vehicle, dexamethasone and 17α-ethynyl-5-androstene-3β,7β,17β-triol at 4 mg/kg/day had 6.4 pmol/L osteoprotegerin (p<0.05).

NF-κB [4] = test: Kinetic analysis of NF-kB inhibition in vivo after LPS, ELISA of NF-κB in spleen cell nuclei; parameters: species or system mice; conditions: about 40 mg/kg i.p. 24 hours before LPS
Method: Kinetic analysis of NF-kB inhibition in vivo. […] In this study, mice were treated with 17α-ethynylandrost-5-ene-3β,7β,17β-triol (about 40 mg/kg, about 1.2 mg/animal) by intraperitoneal injection of a solution (not a suspension) of the compound in vehicle (120 μL vehicle; 30% sulfobutylether-cyclodextrin in water). The drug was injected 24 hours before intraperitoneal injection of bacterial LPS (about an LD50/24). The study used two groups of 12 animals, vehicle control or drug administered 24 hours before LPS challenge. Spleens were harvested from 3 animals from both groups just before LPS challenge and at 1.5, 2.0 and 2.5 hours after administration of LPS. Spleen cells were harvested and the level of activated NF-κB was measured by assay of NF-κB in nuclei.
Maximum NF-κB activation after LPS administration occurred at 1.5 hours in the vehicle controls, which was 4-fold increased over the pre-LPS level of activated NF-κB. The values for the vehicle control and drug treated animals are relative optical density units from ELISA measurement of NF-κB in nuclei from spleen cells.

EAE = conditions: administered at the same time the animals were immunized; cited from earlier work
[5] = compound at 10 nM, 30 nM dexamethasone

SMILES: C[C@]12CC[C@H]3[C@@H]([C@@H](O)C=C4C[C@H](O)CC[C@@]43C)[C@@H]1C[C@@H](O)[C@@H]2O [3α,7β,16α,17β-tetrahydroxyandrost-5-ene]
- decrease of the level of NF-κB activation compared to the LPS+vehicle control group (NF-κB [1]): about 50%
- reversal of the decrease in osteoprotegerin synthesis by MG-63 cells (MG-63 cells; [5]): normal osteoprotegerin levels

SMILES: C[C@]12CC[C@H]3[C@@H](CC=C4C[C@](O)(C(F)(F)F)CC[C@@]43C)[C@@H]1CC[C@@H]2O [3α-trifluoromethylandrost-5-ene-3β,17β-diol]
- cumulative incidence of EAE or lethality [2]: none of these 3 compounds significantly influenced
- course of EAE compared to vehicle-treated mice [2]: powerful anti-inflammatory properties
- mean cumulative score, follow-up period (day 31 to day 54, post treatment) [2]: 10.8±10.3

SMILES: C[C@]12CC[C@H]3[C@@H]([C@H](O)C=C4C[C@@H](O)CC[C@@]43C)[C@@H]1C[C@@H](O)[C@@H]2O [3β,7α,16α,17β-tetrahydroxyandrost-5-ene]
- reversal of the decrease in osteoprotegerin synthesis by MG-63 cells (MG-63 cells; [5]): near normal osteoprotegerin levels

SMILES: C[C@]12CC[C@H]3[C@@H]([C@@H](O)C=C4C[C@@H](O)CC[C@@]43C)[C@@H]1C[C@@H](O)[C@@H]2O [3β,7β,16α,17β-tetrahydroxyandrost-5-ene]
- cumulative incidence of EAE or lethality [2]: none of these 3 compounds significantly influenced
- course of EAE compared to vehicle-treated mice ([2]; listed as androst-5-ene-3β,7β,16α,17β-tetrol): powerful anti-inflammatory properties

SMILES: CC(=O)O[C@@H]1C2=CC[C@H]3[C@@H]4C[C@@H](O)[C@H](O)[C@@]4(C)CC[C@@H]3[C@@]2(C)CC[C@@H]1O [4β-acetoxyandrost-5-ene-3β,16α,17β-triol]
- decrease of the level of NF-κB activation compared to the LPS+vehicle control group (NF-κB [1]): about 50%

SMILES: CC12CCC(O)CC1=CC(O)C1C2CCC2(C)C(O)C(O)CC12 (stereo not drawn) [5-androstene-3β,7β,16α,17β-triol]
- reversal of the decrease in osteoprotegerin synthesis by MG-63 cells (MG-63 cells; compound at 0.1 μM, 30 nM dexamethasone): normal osteoprotegerin levels

SMILES: C#C[C@]1(O)CC[C@H]2[C@@H]3[C@@H](O)C=C4C[C@@H](O)CC[C@]4(C)[C@H]3CC[C@@]21C [17α-ethynylandrost-5-ene-3β,7β,17β-triol]
- immune suppression in PLN assay [3]: not immune suppressive, but was immune enhancing
- osteoprotegerin levels in mice (osteoprotegerin; vehicle, dexamethasone 10 μg/day and compound at 4 mg/kg/day, 23 days, p<0.05): 6.4 pmol/L
- NF-κB in nuclei from spleen cells (NF-κB [4]; 0 hours (just before LPS)): 22 relative optical density units
- NF-κB in nuclei from spleen cells (NF-κB [4]; 1.5 hours after LPS): 2 relative optical density units
- NF-κB in nuclei from spleen cells (NF-κB [4]; 2.0 hours after LPS): 7 relative optical density units
- NF-κB in nuclei from spleen cells (NF-κB [4]; 2.5 hours after LPS): 9 relative optical density units
- reversal of the decrease in osteoprotegerin synthesis by MG-63 cells (MG-63 cells; compound at 1 nM, 7 hours with 30 nM dexamethasone): completely reversed

SMILES: C[C@]12CC[C@H](O)CC1=CC[C@@H]1[C@@H]2CC[C@@]2(C)[C@H]1CC[C@@]2(O)C(F)(F)F [17α-trifluoromethylandrost-5-ene-3β,17β-diol]
- cumulative incidence of EAE or lethality [2]: none of these 3 compounds significantly influenced
- course of EAE compared to vehicle-treated mice [2]: powerful anti-inflammatory properties

SMILES: C#C[C@@]1(O)CC[C@H]2[C@@H]3[C@@H](O)C=C4C[C@@H](O)CC[C@]4(C)[C@H]3CC[C@@]21C [17β-ethynylandrost-5-ene-3β,7β,17α-triol]
- course of EAE compared to vehicle-treated mice [2]: powerful anti-inflammatory properties
- mean cumulative score, follow-up period (day 31 to day 54, post treatment) [2]: 18.4±20.6

SMILES: Cc1cc(C)c(/C=C2\C(=O)Nc3ccccc32)[nH]1 [SU5416, Z-3-[(2,4-dimethylpyrrol-5-yl)methylidenyl]-2-indolinone, reference compound]
- efficacy in EAE (EAE): effective
- course of EAE compared to vehicle-treated mice [2]: ineffective

SMILES: C[C@]12CC[C@H]3[C@@H](CC=C4[C@@H](O)[C@@H](O)CC[C@@]43C)[C@@H]1C[C@@H](O)[C@@H]2O [androst-5-ene-3β,4β,16α,17β-tetrol]
- decrease of the level of NF-κB activation compared to the LPS+vehicle control group (NF-κB [1]): about 50%

SMILES: C[C@@H]1C[C@H]2[C@@H]3CCC4=CC(=O)C=C[C@]4(C)[C@@]3(F)[C@@H](O)C[C@]2(C)[C@@]1(O)C(=O)CO [dexamethasone, reference compound]
- osteoprotegerin levels in mice (osteoprotegerin; vehicle and dexamethasone at 10 μg/day for 23 days (positive control group)): 3.3 pmol/L
